{"source": "patent US20080076750A1", "about": "“Azetidinone Derivatives and Methods of Use Thereof” (priority 2006, published 2008)", "key": {"TRPV1 [1]": {"biological_target": "T1, TRPV1 (Homo sapiens, UniProt Q8NER1)", "T1 construct": "expressed in transfected cells; host or cells: HEK293-Tet-OFF", "T1 sequence (Q8NER1 whole entry, species assumed)": "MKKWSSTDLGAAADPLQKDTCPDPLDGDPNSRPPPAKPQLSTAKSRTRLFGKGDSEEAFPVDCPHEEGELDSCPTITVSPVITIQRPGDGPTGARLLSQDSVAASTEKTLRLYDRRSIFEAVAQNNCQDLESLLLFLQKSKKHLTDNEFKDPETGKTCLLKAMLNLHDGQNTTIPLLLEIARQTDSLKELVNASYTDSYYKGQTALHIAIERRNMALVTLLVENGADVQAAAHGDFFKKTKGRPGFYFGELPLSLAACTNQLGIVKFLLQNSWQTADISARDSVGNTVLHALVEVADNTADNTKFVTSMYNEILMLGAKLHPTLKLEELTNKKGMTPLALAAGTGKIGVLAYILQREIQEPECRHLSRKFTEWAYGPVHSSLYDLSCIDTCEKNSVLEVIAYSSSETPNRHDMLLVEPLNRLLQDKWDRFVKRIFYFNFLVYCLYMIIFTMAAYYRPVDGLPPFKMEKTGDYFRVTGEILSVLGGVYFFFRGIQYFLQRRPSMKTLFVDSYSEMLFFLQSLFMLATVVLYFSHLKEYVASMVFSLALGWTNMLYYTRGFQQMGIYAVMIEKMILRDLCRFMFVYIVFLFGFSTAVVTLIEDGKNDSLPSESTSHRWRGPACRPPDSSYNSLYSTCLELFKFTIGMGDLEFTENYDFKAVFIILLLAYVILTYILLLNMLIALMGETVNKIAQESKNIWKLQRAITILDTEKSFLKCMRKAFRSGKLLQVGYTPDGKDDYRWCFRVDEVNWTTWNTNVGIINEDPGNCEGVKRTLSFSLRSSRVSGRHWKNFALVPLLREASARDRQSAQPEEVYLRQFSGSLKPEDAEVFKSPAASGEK", "assay": "TRPV1 Screening Assay (FLIPR)", "assay_type": "cell-based", "settings": "HEK293-TetOFF-TRPV1, PMA, read-out: VR1 flipr PMA IC50"}, "TRPV1 [2]": {"biological_target": "T1, TRPV1", "assay": "TRPV1 Screening Assay (FLIPR)", "assay_type": "cell-based", "settings": "HEK293-TetOFF-TRPV1, capsaicin (50 nM final), read-out: VR1 flipr CAPSAICIN IC50", "from_the_text": "• 1) Cell line: HEK293-Tet^OFF-TRPV1 • 2) Media: MEM (Invitrogen) • 3) 10% Tet-FBS (Clontech #8630-1) • 4) Fungizone (Gibco #15290-018 (100×)) • 5) Penn/Strep (Gibco #15140-122 (100×)) • 6) Geneticin (Gibco #10131-027 (100×)) • 7) Hygromycin (Clontech #8057-1) • 8) Doxycycline (Clontech #8634-1) • 9) Trypsin/EDTA (Gibco #25200-056) • 10) 100 mm cell culture plates (Falcon #3003) • 11) 96-well poly-D-lysine plates (Fisher #08-774-256) • 12) Hank's Balanced Salt Solution (HBSS) (GIBCO #14025-092) • 13) HEPES Buffer (GIBCO #15630-080) • 14) 30% BSA (Research Organics #1334A) • 15) Probenecid (Sigma P-8761) • 16) Fluo-4, AM (50 μg) (Molecular robes F-23917) • 17) Pluronic F-127 20% (Molecular Probes P-3000). • 18) capsazepine (Sigma C-191) • 19) capsaicin (Sigma M-2028) • 20) compound plates (NUNC #442587) • 21) black pipet tips 96-well FLIPR (Robbins Scientific 1043-24-0) • 22) Additional reagents available from Fisher: methanol, DMSO, NaOH Reagent Preparation: 1) Cells: HEK293-Tet^OFF-TRPV11\n• and Doxycycline 2.5 μg/mL final (from a 1000× stock in PBS) • Cells must be fed and/or split every 2-3 days (to maintain transcriptional repression with Doxycycline). • Must be split no more than 1:5 (50-75% confluency) to maintain growth and viability. • Grown on regular tissue culture plates (e.g. Falcon 3003-100 mm) • SpliT-cells via Trypsin/EDTA: incubate with trypsin at room temperature no longer than 5 min (HEK293 cells have a tendency to ball up if over trypsinized). • Two days prior to assay, the cells are split into 96-well plates in cell media in the absence of doxycycline at a concentration of 40,000 cells/well in a volume of 200 μL, 2) FLIPR buffer is prepared fresh:\nAdd 5 mL of Probenecid Solution, prepared as follows: 710 mg of probenecid (Sigma P-8761) is solubilized in 5 mL of 1 N NaOH, 5 mL of above buffer s added for final volume of 10 mL (of which 5 mL goes back into FLIPR buffer)\nCombine 42 μL of dye mixture with 11 mL of FLIPR buffer/96-well plate.\nStock solution of 0.1 M capsaicin is prepared in MeOH (50 mg+1.6 mL MeOH). Store 50 μL aliquots at −80° C.\nFor assay: • a) Dilute stock by adding 0.8 μL into 1 mL of MeOH (final=80 μM). • b) Add 50 μL of diluted stock to 20 mL of FLIPR buffer (final=0.2 μM) • c) Agonist solution is added 150 μL/well to 96-well plate. • d) Final agonist concentration on cells will be 50 nM. […] Laser is adjusted upwards for an average signal≧10,000/well and less than 10% variability. 7) Compound addition conditions are as follows: • FLIPR setup (dual sequence parameters): • Sequence 1: • First interval 1 sec/60 counts • Second interval 6 sec/50 counts • Fluid addition=50 μL • Pipettor=110 μL • Dispense Speed=30 μL/sec • Sequence 2: • Second interval 1 sec/60 counts • Second interval 6 sec/40 counts • Fluid addition=50 μL • Pipettor height=140 μL • Dispense Speed=50 μL/sec Data Analysis:\n1) Data from both additions is reported as Max-Min for each well"}, "human NPC1L1": {"biological_target": "T2, human NPC1L1 (Homo sapiens, UniProt Q9UHC9)", "T2 construct": "expressed in transfected cells; host or cells: HEK-293 (geneticin selection)", "T2 sequence (Q9UHC9 22-1359)": "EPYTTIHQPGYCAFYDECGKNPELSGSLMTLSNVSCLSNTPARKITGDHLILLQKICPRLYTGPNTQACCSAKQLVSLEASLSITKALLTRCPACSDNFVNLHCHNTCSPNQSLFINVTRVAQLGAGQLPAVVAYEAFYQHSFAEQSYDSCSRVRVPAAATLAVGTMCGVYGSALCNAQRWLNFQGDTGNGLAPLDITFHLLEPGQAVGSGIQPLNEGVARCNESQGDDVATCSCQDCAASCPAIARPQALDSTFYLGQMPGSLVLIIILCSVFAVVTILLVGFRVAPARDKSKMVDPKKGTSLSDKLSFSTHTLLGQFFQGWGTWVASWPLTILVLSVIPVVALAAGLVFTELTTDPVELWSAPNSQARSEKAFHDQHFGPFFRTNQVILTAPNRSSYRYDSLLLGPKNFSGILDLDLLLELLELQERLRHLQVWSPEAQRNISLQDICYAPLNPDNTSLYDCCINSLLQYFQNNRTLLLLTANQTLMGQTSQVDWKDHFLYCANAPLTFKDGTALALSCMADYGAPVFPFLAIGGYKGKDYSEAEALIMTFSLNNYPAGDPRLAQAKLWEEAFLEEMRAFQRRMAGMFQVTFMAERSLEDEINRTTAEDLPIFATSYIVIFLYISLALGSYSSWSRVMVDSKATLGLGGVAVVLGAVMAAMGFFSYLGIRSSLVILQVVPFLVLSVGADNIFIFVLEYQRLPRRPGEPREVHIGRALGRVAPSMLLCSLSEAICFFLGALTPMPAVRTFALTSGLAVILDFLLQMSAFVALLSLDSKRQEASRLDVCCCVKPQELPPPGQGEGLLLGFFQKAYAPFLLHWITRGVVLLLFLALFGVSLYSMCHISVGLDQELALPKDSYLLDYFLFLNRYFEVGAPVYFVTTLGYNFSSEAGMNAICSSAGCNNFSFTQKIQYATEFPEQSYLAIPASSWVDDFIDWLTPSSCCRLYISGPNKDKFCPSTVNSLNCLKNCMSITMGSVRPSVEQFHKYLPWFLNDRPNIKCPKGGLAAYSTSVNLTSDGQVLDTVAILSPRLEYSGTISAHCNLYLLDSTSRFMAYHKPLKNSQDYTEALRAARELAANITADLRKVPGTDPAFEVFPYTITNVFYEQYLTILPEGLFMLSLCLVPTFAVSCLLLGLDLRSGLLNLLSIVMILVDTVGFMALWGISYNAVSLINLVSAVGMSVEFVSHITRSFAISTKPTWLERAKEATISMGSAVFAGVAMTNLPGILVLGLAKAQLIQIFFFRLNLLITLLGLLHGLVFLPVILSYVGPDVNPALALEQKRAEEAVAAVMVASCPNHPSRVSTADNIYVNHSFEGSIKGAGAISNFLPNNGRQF", "assay": "NPC1L1 Binding Assay, human", "settings": "HEK-293 cells expressing human NPC1L1; competition with 250 nM BODIPY-labeled glucuronidated ezetimibe, 4 h at 37° C.", "procedure": "HEK-293 cells expressing human NPC1L1 were plated into 384-well black/clear plates (BD Biosciences, Bedford Mass.) for binding experiments the following day. Cell growth media (DMEM, 10% fetal calf serum, 1 mg/mL geneticin, 100 Units/mL penicillin) was aspirated. Cell growth media ([…]) containing 250 nM BODIPY-labeled glucuronidated ezetimibe was added to each well. Cell growth media ([…] containing the indicated concentration of compound was then added to the wells unlabeled glucuronidated ezetimibe […]) was used to determine nonspecific binding. The binding reaction was allowed to proceed for 4 h at 37° C. Subsequently the cell growth media was aspired and the cells washed once with PBS. The remaining fluorescent labeled glucuronidated ezetimibe bound to the cells was quantified using a FlexStation plate reader (Molecular Devices, Sunnyvale Calif.) to measure fluorescence intensity. Ki values were determined from competition binding curves (n=4 for each point) using Prism and Activity Base software."}, "NPC1L1": {"biological_target": "NPC1L1 (Rattus norvegicus, UniProt Q6T3U3)", "assay": "NPC1L1 Binding Assay, rat", "settings": "competition with BODIPY-labeled glucuronidated ezetimibe"}}, "note": "Where two headings read alike, the source gives them in different places."}
{"smiles": "O=C(Nc1ccc(C(F)(F)F)cc1)N1CCC2(CC1)C(=O)N(c1ccccc1)C2c1ccccn1", "note": "(centres unmarked)", "values": [{"measurement": "IC50", "setting": "TRPV1 [1]", "result": 33, "unit": "nM"}, {"measurement": "IC50", "setting": "TRPV1 [2]", "result": 33, "unit": "nM"}]}
{"smiles": "CC(C)c1ccc(NC(=O)N2CCC3(CC2)C(=O)N(c2ccccc2)C3c2ccccn2)cc1", "note": "(centres unmarked)", "values": [{"measurement": "IC50", "setting": "TRPV1 [1]", "result": 81, "unit": "nM"}, {"measurement": "IC50", "setting": "TRPV1 [2]", "result": 70, "unit": "nM"}]}
{"smiles": "O=C(Nc1c(F)cccc1F)N1CCC2(CC1)C(=O)N(c1ccccc1)C2c1ccccc1", "note": "(centres unmarked)", "values": [{"measurement": "Ki", "setting": "human NPC1L1", "result": 9870, "unit": "nM"}, {"measurement": "Ki", "setting": "NPC1L1", "result": 6630, "unit": "nM"}]}
{"smiles": "O=C(Nc1cccc(Cl)c1Cl)N1CCC2(CC1)C(=O)N(c1ccccc1)C2c1ccccc1", "note": "(centres unmarked)", "values": [{"measurement": "Ki", "setting": "human NPC1L1", "result": 6620, "unit": "nM"}, {"measurement": "Ki", "setting": "NPC1L1", "result": 4950, "unit": "nM"}]}
{"smiles": "Cc1ccc(C)c(NC(=O)N2CCC3(CC2)C(=O)N(c2ccccc2)C3c2ccccc2)c1", "note": "(centres unmarked)", "values": [{"measurement": "Ki", "setting": "human NPC1L1", "result": 3900, "unit": "nM"}, {"measurement": "Ki", "setting": "NPC1L1", "result": 3500, "unit": "nM"}]}
{"smiles": "CC(C)c1ccc(NC(=O)N2CCC3(CC2)C(=O)N(c2ccccc2)C3c2ccccc2)cc1", "note": "(centres unmarked) [drawing 426]", "values": [{"measurement": "IC50", "setting": "TRPV1 [1]", "result": 43, "unit": "nM"}, {"measurement": "IC50", "setting": "TRPV1 [2]", "result": 81, "unit": "nM"}]}
{"smiles": "CC(C)c1ccc(NC(=O)N2CCC3(CC2)C(=O)N(c2ccccc2)C3c2ccccc2)cc1", "note": "(centres unmarked) [drawing 427]", "values": [{"measurement": "IC50", "setting": "TRPV1 [1]", "result": 99, "unit": "nM"}, {"measurement": "IC50", "setting": "TRPV1 [2]", "result": 138, "unit": "nM"}]}
{"smiles": "Cc1cccc(Cl)c1NC(=O)N1CCC2(CC1)C(=O)N(c1ccccc1)C2c1ccccc1", "note": "(centres unmarked) [drawing 434]", "values": [{"measurement": "Ki", "setting": "human NPC1L1", "result": 2320, "unit": "nM"}, {"measurement": "Ki", "setting": "NPC1L1", "result": 1170, "unit": "nM"}]}
{"smiles": "Cc1c(Cl)cccc1NC(=O)N1CCC2(CC1)C(=O)N(c1ccccc1)C2c1ccccc1", "note": "(centres unmarked) [drawing 435]", "values": [{"measurement": "Ki", "setting": "human NPC1L1", "result": 3770, "unit": "nM"}, {"measurement": "Ki", "setting": "NPC1L1", "result": 3620, "unit": "nM"}]}
{"smiles": "Cc1cccc(Cl)c1NC(=O)N1CCC2(CC1)C(=O)N(c1ccccc1)C2c1ccccc1", "note": "(centres unmarked) [drawing 443]", "values": [{"measurement": "Ki", "setting": "human NPC1L1", "result": 1010, "unit": "nM"}, {"measurement": "Ki", "setting": "NPC1L1", "result": 1060, "unit": "nM"}]}
